The values that follow come from US9708338B2, “Aromatic heterocyclylamine derivative having TRPV4-inhibiting activity” (Shionogi & Co., Ltd., priority 2013, dated 2017).

As usually defined, the IC50 is the midpoint of a concentration-inhibition curve. Lower therefore signals inhibition by little substance.

Data set [1] deals with T1, CYP3A4 (Homo sapiens, UniProt P08684).
T1 construct: host or cells: Escherichia coli
In words: Test Example 3 CYP3A4 fluorescent MBI test. It is filed as in vitro ADME. The following applies: CYP3A4 expressed in Escherichia coli; substrate 7-BFC; pre-reaction time 0 or 30 minutes. How it is done: The CYP3A4 fluorescent MBI test is a test of investigating enhancement of CYP3A4 inhibition of a compound of the present invention by a metabolism reaction, and the test was performed using, as CYP3A4 enzyme expressed in Escherichia coli and employing, as an index, a reaction in which 7-benzyloxytrifluoromethylchmarin (7-BFC) is debenzylated by the CYP3A4 enzyme to produce a metabolite, 7-hydroxytrifluoromethylchmarin (7-HFC) emitting fluorescent light.
The reaction conditions were as follows: substrate, 5.6 μmol/L 7-BFC; pre-reaction time, 0 or 30 minutes; reaction time, 15 minutes; reaction temperature, 25° C. […]
An enzyme in a K-Pi buffer (pH 7.4) and a solution of a compound of the present invention as a pre-reaction mixture were added to a 96-well plate at the above composition of the pre-reaction, a part of it was transferred to another 96-well plate so that it was 1/10 diluted by a substrate in a K-Pi buffer, NADPH as a co-factor was added to initiate a reaction as an index (without preincubation) and, after a predetermined time of a reaction, acetonitrile/0.5 mol/L Tris (trishydroxyaminomethane)=4/1 (v/v) was added to stop the reaction. […] For the plate on which each index reaction had been performed, a fluorescent value of 7-HFC which is a metabolite was measured with a fluorescent plate reader. […]

Data set [2] deals with T2, human TRPV4 (Homo sapiens, UniProt Q9HBA0).
T2 construct: expressed in transfected cells; host or cells: CHO-K1
T2 sequence (Q9HBA0 whole entry): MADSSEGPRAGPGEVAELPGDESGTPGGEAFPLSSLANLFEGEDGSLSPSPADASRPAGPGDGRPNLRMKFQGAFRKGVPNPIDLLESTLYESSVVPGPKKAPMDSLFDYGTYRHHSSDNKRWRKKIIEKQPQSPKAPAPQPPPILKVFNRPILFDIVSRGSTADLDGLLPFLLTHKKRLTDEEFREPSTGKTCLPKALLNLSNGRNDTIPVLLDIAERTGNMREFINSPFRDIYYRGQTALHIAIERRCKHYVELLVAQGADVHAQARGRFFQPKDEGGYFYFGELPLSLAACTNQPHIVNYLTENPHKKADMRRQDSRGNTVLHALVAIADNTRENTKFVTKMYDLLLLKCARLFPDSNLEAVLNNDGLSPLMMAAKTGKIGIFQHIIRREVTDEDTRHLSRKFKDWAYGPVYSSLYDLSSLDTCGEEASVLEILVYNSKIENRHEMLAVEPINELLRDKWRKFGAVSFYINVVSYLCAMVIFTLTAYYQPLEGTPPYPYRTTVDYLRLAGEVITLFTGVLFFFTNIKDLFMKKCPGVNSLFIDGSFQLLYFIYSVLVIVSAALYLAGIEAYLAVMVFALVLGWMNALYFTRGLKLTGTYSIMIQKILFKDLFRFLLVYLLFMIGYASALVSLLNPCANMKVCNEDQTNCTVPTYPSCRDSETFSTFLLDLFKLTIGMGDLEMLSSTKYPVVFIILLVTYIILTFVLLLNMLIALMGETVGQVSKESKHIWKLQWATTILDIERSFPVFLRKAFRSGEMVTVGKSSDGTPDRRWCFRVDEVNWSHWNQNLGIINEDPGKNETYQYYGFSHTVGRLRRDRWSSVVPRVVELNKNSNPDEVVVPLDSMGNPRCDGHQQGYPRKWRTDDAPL
In words: Test Example 1 Measurement of TRPV4 inhibitory activity (IC50 value). It is filed as cell-based. Particulars: CHO-K1 cells stably expressing human TRPV4; Fluo 4-AM, FLIPR TETRA; final 1 μmol/L 4α-PDD. How it is done:
(§1) For each compound, TRPV4 inhibitory activity was measured using cells. (Method) TRPV4 inhibitory activity of the compound was evaluated in accordance with the following procedure.
(§2) (1) The TRPV4 inhibitory activity was measured using CHO-K1 cells stably expressing human TRPV4.
(2) In the day before the experimental day, frozen cell were thawed and washed with the culture medium (MEM-α, 10% FBS, 2 mmol/L GlutaMax, 50 unit Penicillin, 50 μg/mL Streptomycin, 20 mmol/L HEPES). Then cells were suspended in the culture medium.
(3) The 384-well plates which hTRPV4/CHO cells were seeded at densities of 4000 cells/well in the culture medium and cultured in a CO2 incubator in the presence of 5% CO2 at 37° C. for overnight was used as assay plates.
(4) The assay plate was washed with assay buffer (Hanks, 20 mmol/L HEPES, 2.5 mmol/L probenecid, pH 7.4), and the buffer were remained at 20 μL/well.
(5) 10 μl of dye loading buffer (9 μmol/L Fluo 4-AM, 0.09% Pluronic F-127/assay buffer) was added to each well, then the assay plate was incubated in a CO2 incubator in the presence of 5% CO2 at 37° C. for one hour (final 3 μmol/L Fluo4-AM).
(6) The assay plate was washed with the assay buffer, and the buffers were remained at 20 μL/well. Then the assay plate was incubated for 10 min at room temperature.
(7) 20 μL/well of diluted compound solution was dispensed to each well in the compound plate, and mixed with built-in Pipette and Mixer of the Fluorescence analysis system FLIPR TETRA (Molecular devices).
(8) After incubation for 5 min, 20 μL/well of 4α-PDD solution were applied to each well of assay plate and mixed with the FLIPR TETRA (final 1 μmol/L 4α-PDD).
(9) The fluorescent intensity was measured with FLIPR TETRA system for 5 min from the point of time addition the compound solution, at Ex 470-495 nm, Em 515-575 nm wavelength.
(§3) In addition, TRPV4 inhibitory activity (IC50 value) of a compound was evaluated according to the following procedure.
(10) In the presence of the compound, the difference between maximal and minimal of fluorescent intensity value for 5 min from just before addition of 4α-PDD solution was calculated, and it was referred as Max−Min value. Max−Min value of the compound A at 1 μmol/L was defined as 100% inhibitory activity, Max−Min value in the absence of the compound was defined as 0% inhibitory activity. The TRPV4 inhibitory activity of the compound was calculated by the following formula. Inhibition ratio=(1−(Max−Min value of the compound−100% inhibitory activity)/(0% inhibitory activity−100% inhibitory activity))×100
Herein, the compound A is the compound I-186 described in PCT/JP2013/058722.
(11) Inhibitory activity was calculated at 10 points with three fold serial dilution, in the final concentration of the compound from 10 μmol/L to 0.5 nmol/L, the IC50 value (nmol/L) was calculated by logistic approximation method.

A short description of data set [3]: Test Example 7 Metabolism stability test. It counts as in vitro ADME. The following applies: 0.5 μmol/L of test compound, human liver microsomes 0.5 mg protein/mL, 37° C. How it is done:
Using commercially available pooled human hepatic microsomes, a compound of the present invention was reacted for a constant time, and a remaining rate was calculated by comparing a reacted sample and an unreacted sample, thereby, a degree of metabolism in liver was assessed.
A reaction was performed (oxidative reaction) at 37° C. for 0 minute or 30 minutes in the presence of 1 mmol/L NADPH in 0.2 mL of a buffer (50 mmol/L Tris-HCl pH 7.4, 150 mmol/L potassium chloride, 10 mmol/L magnesium chloride) containing 0.5 mg protein/mL of human liver microsomes. After the reaction, 50 μL of the reaction solution was added to 100 μL of a methanol/acetonitrile=1/1 (v/v), mixed and centrifuged at 3000 rpm for 15 minutes. The compound of the present invention in the supernatant was quantified by LC/MS/MS, and a remaining amount of the compound of the present invention after the reaction was calculated, letting a compound amount at 0 minute reaction time to be 100%. Hydrolysis reaction was performed in the absence of NADPH and glucuronidation reaction was in the presence of 5 mmol/L UDP-glucuronic acid in place of NADPH, followed by similar operations. (Result) % inhibition was shown at 0.5 μmol/L of test compound.
On the technique in general: Liver microsomes are a subcellular fraction often used to study metabolism.

In data set [4] the target is T2, human TRPV4. In words: Test Example 2' Measurement of TRPV4 inhibitory activity (IC50 value). The following applies: CHO-K1 cells stably expressing human TRPV4; DMEM 3% FBS, 3000 cells/well; final 0.15 μmol/L 4α-PDD. It counts as cell-based. As to the method:
as §1, §2
(2) In the day before the experimental day, frozen cell were thawed and washed with the culture medium (DMEM, 3% FBS, 2 mmol/L GlutaMax, 50 unit Penicillin, 50 μg/mL Streptomycin, 0.1 mmol/L Non-Essential Amino Acids, 25 mmol/L HEPES). Then cells were suspended in the culture medium. […] (7) 20 μL/well of diluted compound solution was dispensed to each well in the compound plate, and mixed with built-in Pipette and Mixer of the Fluorescence analysis system FLIPR TETRA (Molecular devices). […] (9) The fluorescent intensity was measured with FLIPR TETRA system for 5 min from the point of time addition the compound solution, at Ex 470-495 nm, Em 515-575 nm wavelength.
as §3
(10) In the presence of the compound, the difference between maximal and minimal of fluorescent intensity value for 5 min from just before addition of 4α-PDD solution was calculated, and it was referred as Max−Min value. […] The TRPV4 inhibitory activity of the compound was calculated by the following formula. […]

Data set [5] deals with T3, human ether-a-go-go related gene (hERG) channel (Homo sapiens, UniProt Q12809).
T3 construct: expressed in transfected cells; host or cells: CHO
T3 sequence (Q12809 whole entry): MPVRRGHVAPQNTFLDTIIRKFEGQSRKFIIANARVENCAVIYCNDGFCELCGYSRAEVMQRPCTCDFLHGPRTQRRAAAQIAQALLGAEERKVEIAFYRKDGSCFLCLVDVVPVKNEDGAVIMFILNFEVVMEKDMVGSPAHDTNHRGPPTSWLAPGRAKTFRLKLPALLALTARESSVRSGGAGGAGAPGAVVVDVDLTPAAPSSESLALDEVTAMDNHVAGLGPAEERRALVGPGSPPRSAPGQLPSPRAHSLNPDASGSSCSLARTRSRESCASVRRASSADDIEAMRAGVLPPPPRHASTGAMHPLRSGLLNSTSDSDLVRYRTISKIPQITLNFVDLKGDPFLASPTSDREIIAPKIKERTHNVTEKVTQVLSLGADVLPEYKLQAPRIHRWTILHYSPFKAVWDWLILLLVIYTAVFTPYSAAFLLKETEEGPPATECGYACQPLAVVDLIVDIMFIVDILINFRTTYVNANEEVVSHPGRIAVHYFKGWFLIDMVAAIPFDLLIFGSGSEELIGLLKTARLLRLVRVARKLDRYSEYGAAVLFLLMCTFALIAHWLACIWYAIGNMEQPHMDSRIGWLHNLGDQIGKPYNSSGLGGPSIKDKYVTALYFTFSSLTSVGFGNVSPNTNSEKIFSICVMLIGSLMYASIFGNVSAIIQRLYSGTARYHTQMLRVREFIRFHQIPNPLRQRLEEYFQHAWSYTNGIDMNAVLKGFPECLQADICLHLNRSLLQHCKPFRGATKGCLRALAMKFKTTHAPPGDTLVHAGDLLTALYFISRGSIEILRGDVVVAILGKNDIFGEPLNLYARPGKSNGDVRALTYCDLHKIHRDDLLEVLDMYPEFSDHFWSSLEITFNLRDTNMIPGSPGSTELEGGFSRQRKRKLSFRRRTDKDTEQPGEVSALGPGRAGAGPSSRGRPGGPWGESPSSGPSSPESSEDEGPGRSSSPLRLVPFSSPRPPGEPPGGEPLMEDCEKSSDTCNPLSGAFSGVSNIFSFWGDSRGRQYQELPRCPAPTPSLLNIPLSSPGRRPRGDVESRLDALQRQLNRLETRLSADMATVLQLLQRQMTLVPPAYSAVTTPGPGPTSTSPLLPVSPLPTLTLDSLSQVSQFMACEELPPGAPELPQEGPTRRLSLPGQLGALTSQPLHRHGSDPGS
In words: Test Example 8 hERG test. It is filed as cell-based. Particulars: 1 μmol/L of test compound; CHO cells expressing hERG; whole cell patch clamp (QPatch). An excerpt:
For the purpose of assessing risk of an electrocardiogram QT interval prolongation of the compound of the present invention, effects of the compound of the present invention on delayed rectifier K^+ current (IKr), which plays an important role in the ventricular repolarization process, was studied using CHO cells expressing human ether-a-go-go related gene (hERG) channel.
After a cell was retained at a membrane potential of −80 mV by whole cell patch clamp method using an automated patch clamp system (QPatch; Sophion Bioscience A/S), IKr induced by depolarization pulse stimulation at +20 mV for 2 seconds and, further, repolarization pulse stimulation at −50 mV for 2 seconds, was recorded. […] From the recording IKr, an absolute value of the tail peak current was measured based on the current value at the resting membrane potential using analysis software (Falster Patch; Sophion Bioscience A/S). Further, the % inhibition relative to the tail peak current before application of the compound of the present invention was calculated, and compared with the vehicle-applied group (0.1% dimethyl sulfoxide solution) to assess influence of the compound of the present invention on IKr. […]
(Block of hERG is tested as a sign of cardiac risk.)

T1 sequence (P08684 whole entry): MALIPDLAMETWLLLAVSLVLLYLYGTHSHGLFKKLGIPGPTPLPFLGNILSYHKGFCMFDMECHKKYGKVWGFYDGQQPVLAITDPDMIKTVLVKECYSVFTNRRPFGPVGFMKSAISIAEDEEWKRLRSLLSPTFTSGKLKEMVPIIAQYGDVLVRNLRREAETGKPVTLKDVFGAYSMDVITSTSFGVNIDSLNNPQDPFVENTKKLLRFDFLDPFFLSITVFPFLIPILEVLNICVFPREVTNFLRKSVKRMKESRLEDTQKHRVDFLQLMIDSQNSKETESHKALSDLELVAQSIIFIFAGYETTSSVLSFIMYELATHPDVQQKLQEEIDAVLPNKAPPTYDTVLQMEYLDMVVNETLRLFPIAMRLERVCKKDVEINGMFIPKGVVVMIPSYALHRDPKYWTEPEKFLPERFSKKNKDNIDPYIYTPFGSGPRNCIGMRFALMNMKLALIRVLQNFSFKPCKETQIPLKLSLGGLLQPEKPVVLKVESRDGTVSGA

As for `Cc1nc(C(C)O)sc1-c1csc(Nc2ccc(CNc3ccc(Cl)cc3F)cn2)n1.Cl.Cl` (stereo not shown) [Compound I-157], the “CYP3A4 fluorescent MBI: difference between IC50 values” in data set [1] is given as “(−) (when the difference is 3 μmol/L or less, this was defined as (−))”. Moreover, the half-inhibitory concentration (IC50) in data set [2] amounted to 14 nM. Further, the “Percent of compound remaining after 30 min incubation” value in data set [3] came to 83.6%.

Regarding `Cc1nc(C)c(-c2csc(Nc3ccc(C(=O)C4CCCC4)cn3)n2)s1` [Compound I-897], in data set [4], the IC50 was 2.8 nM.

`Cc1nc(C)c(-c2csc(Nc3ccc(CNc4ccc(Cl)cc4F)cn3)n2)s1` [Compound I-48] came in with a half-inhibitory concentration (IC50) in data set [2] of 1.2 nM. Also, in data set [5], the “hERG % inhibition of tail peak current (IKr)” value is recorded as 8.1%. Further, the “Percent of compound remaining after 30 min incubation” value in data set [3] amounted to 78.6%.
